For data set [1], the target named is T1, Human recombinant Top1 (Homo sapiens, UniProt P11387).
T1 construct: made in house
T1 sequence (P11387 1-765): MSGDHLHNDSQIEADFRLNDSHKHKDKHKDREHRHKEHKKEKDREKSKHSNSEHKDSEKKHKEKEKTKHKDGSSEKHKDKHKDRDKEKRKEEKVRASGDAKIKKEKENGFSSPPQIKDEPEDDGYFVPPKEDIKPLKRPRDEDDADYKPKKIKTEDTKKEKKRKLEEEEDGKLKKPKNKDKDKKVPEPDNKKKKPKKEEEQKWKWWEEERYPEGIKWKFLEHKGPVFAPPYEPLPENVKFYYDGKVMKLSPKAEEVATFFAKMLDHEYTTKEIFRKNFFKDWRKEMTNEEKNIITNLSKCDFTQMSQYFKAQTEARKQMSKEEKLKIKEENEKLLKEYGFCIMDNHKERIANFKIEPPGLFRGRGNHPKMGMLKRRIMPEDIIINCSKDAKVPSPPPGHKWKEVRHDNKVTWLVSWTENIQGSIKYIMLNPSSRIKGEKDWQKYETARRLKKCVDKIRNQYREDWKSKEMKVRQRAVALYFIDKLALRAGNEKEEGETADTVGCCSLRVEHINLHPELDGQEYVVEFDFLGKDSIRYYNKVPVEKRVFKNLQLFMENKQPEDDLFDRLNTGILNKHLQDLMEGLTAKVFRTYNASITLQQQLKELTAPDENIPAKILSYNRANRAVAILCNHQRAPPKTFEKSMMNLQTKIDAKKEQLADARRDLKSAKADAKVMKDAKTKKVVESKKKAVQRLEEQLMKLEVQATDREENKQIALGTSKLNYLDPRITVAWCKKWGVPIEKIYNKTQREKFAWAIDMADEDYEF
Description: Topoisomerase 1-mediated DNA cleavage reactions (B), 117-bp DNA oligonucleotide. It is filed as biochemical. Also on record: key to Top1 (compound-induced DNA cleavage due to Top1 inhibition): 0, no detectable activity; +, weak activity; ++, similar activity to compound 5; +++, greater activity than 34; ++++ , equipotent to 32; The (+) ranking indicates the activity lies between two given values. The conditions noted are these: Table 5. How it is done: Human recombinant Top1 was purified from baculovirus as described in Bailly, C. Curr. Med. Chem. 2000, 7, 39-58. DNA cleavage reactions were prepared as previously reported with the exception of the DNA substrate in Saltz, et al. Oncologist 1997, 2, 402-409.
Approximately 2 nM radiolabeled DNA substrate was incubated with recombinant Top1 in 20 μL of reaction buffer [10 mM Tris-HCl (pH 7.5), 50 mM KCl, 5 mM MgCl2, 0.1 mM EDTA, and 15 μg/mL BSA] at 25° C. for 20 min in the presence of various concentrations of compounds. […] Aliquots of each reaction mixture were subjected to 20% denaturing PAGE. Gels were dried and visualized using a phosphoimager and ImageQuant software (Molecular Dynamics).
All of the new indenoisoquinoline derivatives with C-2 side chains were tested in Top1-mediated DNA cleavage assays. For this purpose, a ^32P 3′-end labeled 117-bp DNA fragment was incubated with Top1 and four 10-fold dilutions starting from 100 μM of a tested compound. The DNA fragments were separated on 20% PAGE denaturing gels. The Top1 inhibitory activities were assigned on the basis of the visual inspection of the number and intensities of the gel bands corresponding to Top1-mediated DNA cleavage fragments. […] Ambiguous scores (e.g., between two values) are designated with parentheses (e.g., ++(+) would be between ++ and +++).

Data set [2] relates to all human cancer cell lines successfully tested. Briefly: NCI screen mean graph midpoint (MGM) for growth inhibition. The class given is cell-based. The conditions noted are these: Table 6. A digest of the protocol:
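NCI60 panel cells exposed to compound at 100, 10, 1, 0.1 and 0.01 μM for 48 h, then sulforhodamine B staining. Percentage growth versus control plotted against log concentration; MGM is the midpoint across all lines tested.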

For data set [3], the system named is ovarian OVCAR-3. Description: COMPARE screening (NCI human cancer cell line screen), cytotoxicity GI50. The class given is cell-based. The following applies: Homo sapiens, OVCAR-3, 48 h, read-out: Cytotoxicity (GI50) Ovarian OVCAR-3. In short, it runs like this:
(§1)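 Compounds went into the NCI developmental therapeutics 60-cell-line screen at 100, 10, 1, 0.1 and 0.01 μM. After 48 h incubation, sulforhodamine B staining gave optical densities used to derive percentage growth.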

Data set [4] has as its system renal SN12C. The description is as above. It is filed as cell-based. The conditions noted are these: Homo sapiens, SN12C, 48 h, read-out: Cytotoxicity (GI50) renal SN12C. A digest of the protocol: as §1
Data set [5] concerns CNS SF-539. Described as above. It is filed as cell-based. The conditions noted are these: Homo sapiens, CNSSF-539, 48 h, read-out: Cytotoxicity (GI50) CNS SF-539. A digest of the protocol: as §1
Data set [6] concerns lung HOP-62. The description is as above. It is filed as cell-based. The following applies: Homo sapiens, HOP-62, 48 h, read-out: Cytotoxicity (GI50) lung HOP-62. In short, it runs like this: as §1
Data set [7] has as its system melanoma UACC-62. Described as above. The class given is cell-based. The conditions noted are these: Homo sapiens, UACC-62, 48 h, read-out: Cytotoxicity (GI50) melanoma UACC-62. In short, it runs like this:
as §1

Data set [8] relates to prostate DU-145. The description is as above. The class given is cell-based. The conditions noted are these: Homo sapiens, DU-145, 48 h, read-out: Cytotoxicity (GI50) prostate DU-145. In short, it runs like this:
as §1

Data set [9] has as its system colon HCT-116. Described as above. The class given is cell-based. The conditions noted are these: Homo sapiens, HCT-116, 48 h, read-out: Cytotoxicity (GI50) Colon HCT-116. In short, it runs like this: as §1
Data set [10] relates to breast MCF-7. Description: NCI60 antiproliferative activity, cytotoxicity GI50. It is filed as cell-based, human. The conditions noted are these: Homo sapiens, MCF7, 48 h, read-out: Cytotoxicity (GI50) breast MCF-7. The protocol: Selected compounds were tested for antiproliferative activity in the National Cancer Institute's developmental therapeutics assay 60 cell line screen (NCI60). The cells were incubated with the tested compounds at 100, 10, 1, 0.1, and 0.01 μM concentrations for 48 h before treatment with sulforhodamine B dye. Optical densities were recorded, and their ratios relative to that of the control were plotted as percentage growth against the log 10 of the tested compound concentrations.

In data set [11] the target is recombinant TDP1 (Homo sapiens, UniProt Q9NUW8). Briefly: Gel-based assay measuring the inhibition of recombinant TDP1. It is filed as biochemical. How it is done: A 5′-[^32P]-labeled single-stranded DNA oligonucleotide containing a 3′-phosphotyrosine (N14Y) was generated as described by Dexheimer et al. (J. Med. Chem. 2009, 52, 7122-7131). The DNA substrate was then incubated with 5 μM recombinant TDP1 in the absence or presence of inhibitor for 15 min at room temperature in a buffer containing 50 mM Tris HCl, pH 7.5, 80 mM KCl, 2 mM EDTA, 1 mM DTT, 40 μg/ml BSA and 0.01% Tween-20. Reactions were terminated by the addition of 1 volume of gel loading buffer [99.5% (v/v) formamide, 5 mM EDTA, 0.01% (w/v) xylene cyanol, and 0.01% (w/v) bromophenol blue]. Samples were subjected to a 16% denaturing PAGE and gels were exposed after drying to a PhosphorImager screen (GE Healthcare). Gel images were scanned using a Typhoon 8600 (GE Healthcare) and densitometric analyses were performed using the ImageQuant software (GE Healthcare).
Sequence of recombinant TDP1 (Q9NUW8 whole entry): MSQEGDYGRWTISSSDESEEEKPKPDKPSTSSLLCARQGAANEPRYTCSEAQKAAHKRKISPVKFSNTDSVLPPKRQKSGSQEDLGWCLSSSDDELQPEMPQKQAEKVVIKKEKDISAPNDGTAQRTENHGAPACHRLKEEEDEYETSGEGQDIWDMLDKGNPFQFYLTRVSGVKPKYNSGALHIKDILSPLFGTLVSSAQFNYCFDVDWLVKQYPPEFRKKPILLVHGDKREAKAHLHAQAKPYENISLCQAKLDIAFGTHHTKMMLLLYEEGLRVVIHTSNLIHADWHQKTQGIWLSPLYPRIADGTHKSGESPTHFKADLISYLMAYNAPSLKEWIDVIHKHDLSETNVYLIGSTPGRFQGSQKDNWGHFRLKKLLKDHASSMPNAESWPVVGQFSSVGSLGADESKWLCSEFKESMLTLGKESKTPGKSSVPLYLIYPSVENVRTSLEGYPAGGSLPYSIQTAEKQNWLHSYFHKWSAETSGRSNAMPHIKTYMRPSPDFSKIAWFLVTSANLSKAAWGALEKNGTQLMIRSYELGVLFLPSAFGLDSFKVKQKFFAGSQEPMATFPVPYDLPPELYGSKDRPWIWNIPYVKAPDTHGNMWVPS
The TDP1 inhibitory activities of the O-2-substituted indenoisoquinolines were measured by determining their abilities to inhibit the hydrolysis of the phosphodiester linkage between tyrosine and the 3′-end of a DNA oligonucleotide substrate and thus prevent the generation of an oligonucleotide with a free 3′-phosphate (N14P, Scheme 13). Therefore, the disappearance of the gel band for N14P indicates TDP1 inhibition.
Tyrosyl-DNA phosphodiesterase 1 (TDP1) is a DNA repair enzyme that repairs cytotoxic DNA damage induced by Top1 inhibitors.

As a reminder, the GI50 is the concentration that inhibits growth by half. As a reminder, the melting point is the temperature of the solid-liquid transition. A word on the IC50: it is the midpoint of a concentration-inhibition curve. Take `C=CCOc1cc2c3c(n(CCCN4CCOCC4)c(=O)c2cc1OC)-c1cc2c(cc1C3=O)OCO2` [Compound 20, 2-(Allyloxy)-3-methoxy-6-(3-morpholinopropyl)-5H-[1,3]dioxolo[4′,5′:5,6]indeno [1,2-c]isoquinoline-5,12(6H)-dione]: the melting point is 199 to 200 °C (dec.). Also, the “Top1 inhibitory activity (level)” value in data set [1] (relative to compounds 32 and 33) is “+ or ++”. The “Top1 (compound-induced DNA cleavage due to Top1 inhibition)” value in data set [1] (semiquantitative scale relative to 1 μM camptothecin (32) or MJ-III-65 (34)) is on record as “+”. In addition, the “GI50's against various cell lines (in words)” value in data set [2] (NCI60 cell lines) is “submicromolar”. In addition, in [2] (all human cancer cell lines successfully tested, range 10^−8 to 10^−4 molar, with standard error), the MGM (mean GI50 across cell lines) was 100 ± 35 nM. Moreover, in data set [3], the GI50 was 300 nM. For the same compound, the GI50 in data set [4] is under 10 nM. Besides, in data set [5], the GI50 was determined as 10 nM. Besides, the GI50 in [6] was under 10 nM. Also, the GI50 in [7] is under 10 nM. The GI50 in data set [8] was under 10 nM. In addition, in [9], the GI50 came to 10 nM. Further, the GI50 in [10] was under 10 nM. The “TDP1 inhibitory activity (in words)” value in data set [11] was “no detectable TDP1 inhibitory activity”. Also, the IC50 in [11] (Table 5, determined in duplicate, read-out: TDP1 (IC50, semiquantitative scale)) was over 111 µM.

Source of the values: patent US9796753B2, “N-substituted indenoisoquinolines and syntheses thereof” (Purdue Research Foundation, priority 2005, dated 2017).
